Data from US20050130252A1, “Stabilized susceptibility tests of aerobic pathogens” (Wyeth Holdings Corporation, priority 2003, published 2005).
Values after ≈ are worked out from the molar mass of the structure shown. Like-named read-outs stand apart in the source and are kept apart here.

Legend:
Assay type in all cases: cell-based
[1] = tested on: Enterococcus faecalis GC2267 tet(L) + (M) + (S); test: Agar dilution in vitro activity; settings: E. faecalis GC2267 tet(L) + (M) + (S)
Description: (§1) The in vitro activities of tigecycline and control antibiotics were determined by the broth microdilution method as recommended by the NCCLS. (National Committee for Clinical Laboratory Standards, 2003. Methods for Dilution Antimicrobial Susceptibility Tests for Bacteria That Grow Aerobically; Approved Standards: M7-A6, Sixth ed, vol. 23., National Committee for Clinical Laboratory Standards Wayne, Pa.) was used for the standard procedures. MBH with 5% lysed horse blood was used for testing S. pneumoniae and Haemophilus Test Medium was used for testing H. influenzae. Oxyrase® (Oxyrase Inc, Mansfield, Ohio) was used according to the manufacturer's instructions by adding 1 ml of Oxyrase® to 50 ml of media. Media age studies were performed by preparing MHB in multiple flasks, then storing the media under various conditions. MICs were usually performed in duplicate on each day of testing. Storage under anaerobic conditions was conducted in an anaerobic chamber (MACS MG 1000, Don Whitley Scientific LTD). The pH of the media was determined by pH meter (Corning 430). A comparison of the in vitro activity of tigecycline by agar and broth dilution methodolgies with and without Oxyrase® against clinical isolates is shown in Table 1.

[2] = tested on: Staphylococcus aureus GC1079 tet(K); test: Agar dilution in vitro activity; settings: S. aureus GC1079 tet(K)
Description: as §1

[3] = tested on: H. influenzae GC6896 (ATCC Control); test: Broth microdilution MIC; settings: Haemophilus influenzae, read-out: Minimal Inhibitory Concentration
Description: (§2) The process for preparing susceptibility test medium are the following steps: • a. Preparing Mueller Hinton Broth II medium by adding 22 grams powdered media to 1.0 liter distilled water; • b. Autoclaving (121° C., 15 psi, 15 minutes) and cooling the medium; • c. Adding Oxyrase® up to about 10% final volume and keeping at 35-37° C. in an incubator for 30 minutes; • d. Adding about 50 μL to each well of a 96 well microtiter plate; • e. Weighing drug and adding broth to drug to bring up to about (standard 128 μg/ml); • f. Adding 50 μL of the drug to the first column of the titer plate; • g. Diluting by two-fold serial diluting across or down the plate. • h. Preparing a Prompt™ inoculum at 10^8 CFU/ml; • i. Diluting inoculum 1:100 in the broth at […] in 9.9 ml (1:100) is 10^6 colony forming units (CFU) forming the adjusted inoculum; • j. Adding 50 μL of the adjusted inoculum to the wells of the microtiter plate; • k. Incubating the plates at 35-37° C. for 18-22 hours; and • l. Reading, with the unaided eye, the MIC.
as §1

[4] = tested on: M. catarrhalis GC6907 (Clinical); test: Broth microdilution MIC; settings: Moraxella catarrhalis, read-out: Minimal Inhibitory Concentration
Description: as §2, §1

[5] = tested on: Staphylococcus aureus GC6467 Clinical - tet(M) + (K); test: Broth microdilution MIC; settings: S. aureus GC6467 tet(M) + (K)
Description: as §2, §1

[6] = tested on: S. pneumoniae GC4465 (Clinical); test: Broth microdilution MIC; settings: Streptococcus pneumoniae, read-out: Minimal Inhibitory Concentration
Description: as §2, §1

[7] = tested on: Escherichia coli GC2203 ATCC Control; test: Broth microdilution MIC; settings: for In Vitro Activity of Tigecycline: Broth, E. coli GC2203 ATCC Control; for MIC: Escherichia coli, E. coli GC2203 (ATCC Control), read-out: Minimal Inhibitory Concentration
Description: as §2, §1

[8] = tested on: Enterococcus faecalis GC4555 ATCC Control; test: Broth microdilution MIC; settings: for In Vitro Activity of Tigecycline: Broth, E. faecalis GC4555 ATCC Control; for MIC: Enterococcus faecalis, E. faecalis GC4555 (ATCC Control), read-out: Minimal Inhibitory Concentration
Description: as §2, §1

[9] = tested on: Escherichia coli GC4560 IMP mutant; test: Broth microdilution MIC; settings: E. coli GC4560 IMP mutant
Description: as §2, §1

[10] = tested on: Staphylococcus aureus GC6466 Clinical - tet(M); test: Broth microdilution MIC; settings: for In Vitro Activity of Tigecycline: Broth, S. aureus GC6466 tet(M); for MIC: Staphylococcus aureus, read-out: Minimal Inhibitory Concentration
Description: as §2, §1

[11] = tested on: Staphylococcus aureus GC2216 ATCC Control; test: Broth microdilution MIC; settings: for In Vitro Activity of Tigecycline: Broth, S. aureus GC2216 ATCC Control; for MIC: Staphylococcus aureus, S. aureus GC2216 (ATCC Control), read-out: Minimal Inhibitory Concentration
Description: as §2, §1

[12] = tested on: S. pneumoniae GC1894 (Clinical); test: Broth microdilution MIC; settings: Streptococcus pneumoniae, read-out: Minimal Inhibitory Concentration
Description: as §2, §1

[13] = tested on: Staphylococcus aureus GC4536 Smith MP -In Vivo; test: Broth microdilution MIC; settings: for In Vitro Activity of Tigecycline: Broth, S. aureus GC4536 Smith; for MIC: Staphylococcus aureus, S. aureus GC4536 (Smith MP - In Vivo), read-out: Minimal Inhibitory Concentration
Description: as §2, §1

[14] = tested on: Staphylococcus aureus GC1131 Clinical isolate; test: Broth microdilution MIC; settings: for In Vitro Activity of Tigecycline: Broth, S. aureus GC1131; for MIC: Staphylococcus aureus, S. aureus GC1131 (Clinical), read-out: Minimal Inhibitory Concentration
Description: as §2, §1

[15] = tested on: Enterococcus faecalis GC2242 Vancomycin-Resistant; test: Broth microdilution MIC; settings: for In Vitro Activity of Tigecycline: Broth, E. faecalis GC2242 Vancomycin-Resistant; for MIC: Enterococcus faecalis, read-out: Minimal Inhibitory Concentration
Description: as §2, §1

[16] = tested on: Candida albicans GC3066 ATCC Control; test: Broth microdilution MIC; settings: for In Vitro Activity of Tigecycline: Broth, C. albicans GC3066 ATCC Control; for MIC: Candida albicans, C. albicans GC3066 ATCC (Control), read-out: Minimal Inhibitory Concentration
Description: as §2, §1

[17] = 336 h, Aged Media (two weeks at RT)

CN(C)c1cc(NC(=O)CNC(C)(C)C)c(O)c2c1C[C@H]1C[C@H]3[C@H](N(C)C)C(O)=C(C(N)=O)C(=O)[C@@]3(O)C(O)=C1C2=O [Tigecycline, tigecycline]
In Vitro Activity of Tigecycline ([1]; Oxyrase (10%)): 0.12 | In Vitro Activity of Tigecycline ([1]; no Oxyrase): 0.25 | In Vitro Activity of Tigecycline ([2]; Oxyrase (10%)): 0.25 | In Vitro Activity of Tigecycline ([2]; no Oxyrase): 0.5 | MIC [3, 17]: 0.5 µg/mL (≈ 0.854 µM) | MIC ([3]; Fresh Media): 0.25 µg/mL (≈ 0.427 µM) | MIC [4, 17]: 0.03 µg/mL (≈ 0.0512 µM) | MIC ([4]; Fresh Media): 0.015 µg/mL (≈ 0.0256 µM) | In Vitro Activity of Tigecycline ([5]; Oxyrase (2%)): 0.50 | In Vitro Activity of Tigecycline ([5]; no Oxyrase): 1 | MIC [6, 17]: 0.03 µg/mL (≈ 0.0512 µM) | MIC ([6]; Fresh Media): < 0.008 µg/mL | In Vitro Activity of Tigecycline ([7]; Oxyrase (2%)): 0.12 | In Vitro Activity of Tigecycline ([7]; no Oxyrase): 0.25 | MIC [7, 17]: 0.12 µg/mL (≈ 0.205 µM) | MIC ([7]; Fresh Media): 0.03 µg/mL (≈ 0.0512 µM) | In Vitro Activity of Tigecycline ([8]; Oxyrase (2%)): 0.06 | In Vitro Activity of Tigecycline ([8]; no Oxyrase): 0.50 | MIC [8, 17]: 0.25 µg/mL (≈ 0.427 µM) | MIC ([8]; Fresh Media): 0.03 µg/mL (≈ 0.0512 µM) | In Vitro Activity of Tigecycline ([9]; Oxyrase (2%)): 0.03 | In Vitro Activity of Tigecycline ([9]; no Oxyrase): 0.25 | In Vitro Activity of Tigecycline ([10]; Oxyrase (2%)): 0.12 | In Vitro Activity of Tigecycline ([10]; no Oxyrase): 0.50 | MIC ([10]; 336 h): 0.25 µg/mL (≈ 0.427 µM) | MIC [10]: 0.12 µg/mL (≈ 0.205 µM) | In Vitro Activity of Tigecycline ([11]; Oxyrase (2%)): 0.12 | In Vitro Activity of Tigecycline ([11]; no Oxyrase): 0.50 | MIC [11, 17]: 0.25 µg/mL (≈ 0.427 µM) | MIC ([11]; Fresh Media): 0.12 µg/mL (≈ 0.205 µM) | MIC [12, 17]: 0.03 µg/mL (≈ 0.0512 µM) | MIC ([12]; Fresh Media): < 0.008 µg/mL | In Vitro Activity of Tigecycline ([13]; Oxyrase (2%)): 0.12 | In Vitro Activity of Tigecycline ([13]; no Oxyrase): 0.50 | MIC [13, 17]: 0.25 µg/mL (≈ 0.427 µM) | MIC ([13]; Fresh Media): 0.12 µg/mL (≈ 0.205 µM) | In Vitro Activity of Tigecycline ([14]; Oxyrase (2%)): 0.25 | In Vitro Activity of Tigecycline ([14]; no Oxyrase): 0.50 | MIC [14, 17]: 0.25 µg/mL (≈ 0.427 µM) | MIC ([14]; Fresh Media): 0.25 µg/mL (≈ 0.427 µM) | In Vitro Activity of Tigecycline ([15]; Oxyrase (2%)): 0.12 | In Vitro Activity of Tigecycline ([15]; no Oxyrase): 0.50 | MIC ([15]; 336 h): 0.12 µg/mL (≈ 0.205 µM) | MIC [15]: 0.06 µg/mL (≈ 0.102 µM) | In Vitro Activity of Tigecycline ([16]; Oxyrase (2%)): >16 | In Vitro Activity of Tigecycline ([16]; no Oxyrase): >16 | MIC [16, 17]: > 8 µg/mL | MIC ([16]; Fresh Media): > 8 µg/mL
